Results from patent publication US9662327B2 (AGIOS PHARMACEUTICALS, INC, priority 2011, dated 2017).
Where two headings read alike, the source gives them in different places.

Molecular target: IDH1 R132H (Homo sapiens (Human), UniProt O75874, R132H)
Assay: Assays for IDH1 R132H Inhibitors (NADPH/aKG, resazurin detection)
Type: biochemical
Details: IDH1 R132H enzyme
Summary of the method: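 Substrate mix held 8 uM NADPH plus 2 mM aKG; buffer was 20 mM Tris pH 7.5 with 150 mM NaCl, 10 mM MgCl2, 0.03% BSA. After 50 min room-temperature reaction, NADPH remaining was detected with 30 μM resazurin mix over 5 min.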

[1] = Table 2, read-out: IDHR132H Activity

IDH1 R132H, sequence (O75874 whole entry R132H): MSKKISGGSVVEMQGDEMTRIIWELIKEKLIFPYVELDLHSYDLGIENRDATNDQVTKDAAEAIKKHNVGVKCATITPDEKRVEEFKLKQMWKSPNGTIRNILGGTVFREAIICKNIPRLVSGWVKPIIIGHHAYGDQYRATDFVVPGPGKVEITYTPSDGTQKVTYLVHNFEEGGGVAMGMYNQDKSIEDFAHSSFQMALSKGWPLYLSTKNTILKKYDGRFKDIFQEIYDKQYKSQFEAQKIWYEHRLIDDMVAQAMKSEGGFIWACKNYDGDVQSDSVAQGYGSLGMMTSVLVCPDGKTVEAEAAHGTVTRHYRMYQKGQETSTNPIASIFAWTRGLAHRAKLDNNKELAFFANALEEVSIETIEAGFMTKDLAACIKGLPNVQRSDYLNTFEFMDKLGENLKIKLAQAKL

Structure (SMILES)	IC50 [1] [nM]	IC50 (Table 3, read-out: R132H IC50) [nM]
CCOC(=O)[C@@H]1CN(c2nc(C(C)C)c3c(c2C#N)CC(C)(C)OC3)CCN1C(=O)c1ccoc1 [Compound 411]	500 to 1000	
COC(=O)CCC(=O)N1CCN(c2nc(C3CC3)c3c(c2C#N)CC(C)(C)OC3)C[C@H]1C(C)C [Compound 412, (R)-methyl 4-(4-(5-cyano-8-cyclopropyl-3,3-dimethyl-3,4-dihydro-1H-pyrano[3,4-c]pyridin-6-yl)-2-isopropylpiperazin-1-yl)-4-oxobutanoate]	< 500	
CCc1nc(N2CCN(C(=O)CCOC)[C@H](C(C)C)C2)c(C#N)c2c1COC(C)(C)C2 [Compound 413, (R)-8-ethyl-6-(3-isopropyl-4-(3-methoxypropanoyl)piperazin-1-yl)-3,3-dimethyl-3,4-dihydro-1H-pyrano[3,4-c]pyridine-5-carbonitrile]	< 500	
CCc1nc(N2CCN(C(=O)c3ccoc3)[C@H](C(C)C)C2)c(C#N)c2c1COC(C)(C)C2 [Compound 414, (R)-8-ethyl-6-(4-(furan-3-carbonyl)-3-isopropylpiperazin-1-yl)-3,3-dimethyl-3,4-dihydro-1H-pyrano[3,4-c]pyridine-5-carbonitrile]	1000 to 10000	
CC(C)[C@@H]1CN(c2nc(C3CC3)c3c(c2C#N)CC(C)(C)OC3)CCN1C(=O)Cn1cc(Br)cn1 [Compound 415, (R)-6-(4-(2-(4-bromo-1H-pyrazol-1-yl)acetyl)-3-isopropylpiperazin-1-yl)-8-cyclopropyl-3,3-dimethyl-3,4-dihydro-1H-pyrano[3,4-c]pyridine-5-carbonitrile]	500 to 1000	
CC(C)[C@@H]1CN(c2nc(C3CC3)c3c(c2C#N)CC(C)(C)OC3)CCN1C(=O)CCC(=O)O [Compound 416, (R)-4-(4-(5-cyano-8-cyclopropyl-3,3-dimethyl-3,4-dihydro-1H-pyrano[3,4-c]pyridin-6-yl)-2-isopropylpiperazin-1-yl)-4-oxobutanoic acid]	1000 to 10000	
CC(C)[C@@H]1CN(c2nc(C3CC3)c3c(c2C#N)CC(C)(C)OC3)CCN1C(=O)COC1CCOC1 (stereo partly drawn) [Compound 417, 8-cyclopropyl-6-((3R)-3-isopropyl-4-(2-(tetrahydrofuran-3-yloxy)acetyl)piperazin-1-yl)-3,3-dimethyl-3,4-dihydro-1H-pyrano[3,4-c]pyridine-5-carbonitrile]	1000 to 10000	
CC(C)[C@@H]1CN(c2nc(C3CC3)c3c(c2C#N)CC(C)(C)OC3)CCN1C(=O)CC(=O)O [Compound 418, (R)-3-(4-(5-cyano-8-cyclopropyl-3,3-dimethyl-3,4-dihydro-1H-pyrano[3,4-c]pyridin-6-yl)-2-isopropylpiperazin-1-yl)-3-oxopropanoic acid]	1000 to 10000	
CC(=O)OCC(C)(C)C(=O)N1CCN(c2nc(C3CC3)c3c(c2C#N)CC(C)(C)OC3)C[C@H]1C(C)C [Compound 419, (R)-3-(4-(5-cyano-8-cyclopropyl-3,3-dimethyl-3,4-dihydro-1H-pyrano[3,4-c]pyridin-6-yl)-2-isopropylpiperazin-1-yl)-2,2-dimethyl-3-oxopropyl acetate]	1000 to 10000	
COC(=O)C(C)CCC(=O)N1CCN(c2nc(C3CC3)c3c(c2C#N)CC(C)(C)OC3)C[C@H]1C(C)C (stereo partly drawn) [Compound 439, Methyl 5-((R)-4-(5-cyano-8-cyclopropyl-3,3-dimethyl-3,4-dihydro-1H-pyrano[3,4-c]pyridin-6-yl)-2-isopropylpiperazin-1-yl)-2-methyl-5-oxopentanoate]		500 to 1000
CC(C)[C@@H]1CN(c2nc(C3CC3)c3c(c2C#N)CC(C)(C)OC3)CCN1C(=O)CS(C)(=O)=O [Compound 446, (R)-8-cyclopropyl-6-(3-isopropyl-4-(2-(methylsulfonyl)acetyl)piperazin-1-yl)-3,3-dimethyl-3,4-dihydro-1H-pyrano[3,4-c]pyridine-5-carbonitrile]		500 to 1000
CC(C)[C@@H]1CN(c2nc(C3CC3)c3c(c2C#N)CC(C)(C)OC3)CCN1C(=O)CCc1ccco1 [Compound 447, (R)-8-cyclopropyl-6-(4-(3-(furan-2-yl)propanoyl)-3-isopropylpiperazin-1-yl)-3,3-dimethyl-3,4-dihydro-1H-pyrano[3,4-c]pyridine-5-carbonitrile]		500 to 1000
